Results: patent publication US9695155B2, “Herbicidal substituted pyrimidinyloxy benzene compounds” (E. I. DU PONT DE NEMOURS AND COMPANY, priority 2013, dated 2017)

Experiments:
[1] = system: barnyardgrass; experiment: Test A preemergence; format: in vivo, Echinochloa crus-galli; conditions: 0 to 100 scale where 0 is no effect and 100 is complete control
In short: (§1)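 Scoring: eye-based comparison with untreated controls, 0 for no effect through 100 for complete control, at about day 10. Treatments: directed soil spray preemergence; foliar spray postemergence on 2–10 cm plants at the one- to two-leaf stage. Medium: loam soil with sand.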

[2] = system: wheat; experiment: Test A postemergence; format: in vivo, Triticum aestivum; conditions: 0 to 100 scale where 0 is no effect and 100 is complete control
In short: as §1

[3] = system: Heteranthera limosa; experiment: Test B flooded paddy test; format: in vivo; conditions: Flood, 250 g ai/ha, 0 to 100 scale where 0 is no effect and 100 is complete control
In short: (§2)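 Plants at 2-leaf stage; pots flooded to 3 cm above soil and compound applied directly into paddy water, depth held throughout. After 13 to 15 days in greenhouse, visual rating versus controls on 0 (no effect) to 100 (complete control) scale.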

[4] = system: barnyardgrass; experiment: Test B flooded paddy test; format: in vivo, Echinochloa crus-galli; conditions: Flood, 250 g ai/ha, 0 to 100 scale where 0 is no effect and 100 is complete control
In short: as §2

[5] = system: blackgrass; experiment: Test C preemergence; format: in vivo, Alopecurus myosuroides
In short: (§3)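 Seeds were sown in loam–sand blend and sprayed preemergence, while plants at 1- to 4-leaf stage (2–18 cm) in peat-based medium received postemergence sprays; test chemicals were formulated in a non-phytotoxic solvent with surfactant. After 13–15 days in a greenhouse, injury was rated visually against controls, 0 (no effect) to 100 (complete control).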

[6] = system: Italian ryegrass; experiment: Test C preemergence; format: in vivo, Lolium multiflorum; conditions: preemergence
In short: as §3

[7] = system: wheat, winter; experiment: Test C preemergence; format: in vivo, Triticum aestivum; conditions: preemergence
In short: as §3

[8] = system: large (Lg) crabgrass; experiment: Test C preemergence; format: in vivo, Digitaria sanguinalis
In short: as §3

[9] = system: blackgrass; experiment: Test C postemergence; format: in vivo, Alopecurus myosuroides
In short: as §3

[10] = system: johnsongrass; experiment: Test C postemergence; format: in vivo, Sorghum halepense
In short: as §3

[11] = system: wild oat; experiment: Test C postemergence; format: in vivo, Avena fatua
In short: as §3

[12] = 16 g ai/ha, preemergence, scale 0 to 100 (0 no effect, 100 complete control)
[13] = 62 g ai/ha, preemergence, scale 0 (no effect) to 100 (complete control)
[14] = 125 g ai/ha, preemergence, scale 0 (no effect) to 100 (complete control)
[15] = Preemergence, 31 g ai/ha, scale 0 to 100, 0 no effect, 100 complete control
[16] = 16 g ai/ha, scale 0 to 100 (0 no effect, 100 complete control)
[17] = 62 g ai/ha, scale 0 (no effect) to 100 (complete control)
[18] = 125 g ai/ha, scale 0 (no effect) to 100 (complete control)
[19] = 16 g ai/ha, postemergence, 0 is no effect, 100 is complete control
[20] = 125 g ai/ha, postemergence, visual rating, scale 0 to 100 (0 no effect, 100 complete control)
[21] = Postemergence, 62 g ai/ha, scale 0 to 100 (0 no effect, 100 complete control)

Cc1cnc(Oc2cccc(C#N)c2-n2cc(I)cn2)nc1 [Compound 136]
Plant response rating, Barnyardgrass ([1]; 125 g ai/ha): 60 | Barnyardgrass plant response rating ([1]; 500 g ai/ha): 100 | Wheat plant response rating ([2]; 125 g ai/ha): 0 | Plant response rating, Wheat ([2]; 500 g ai/ha): 50 | Plant response rating, Ducksalad [3]: 70 | Plant response rating, Barnyardgrass [4]: 20 | Blackgrass plant response rating [5, 12]: 0 | Blackgrass plant response rating [5, 13]: 75 | Blackgrass plant response rating [5, 14]: 80 | Plant response rating, Blackgrass [5, 15]: 0 | Ryegrass, Italian plant response rating [6, 16]: 0 | Ryegrass, Italian plant response rating [6, 17]: 0 | Ryegrass, Italian plant response rating [6, 18]: 15 | Wheat plant response rating [7, 16]: 0 | Wheat plant response rating [7, 17]: 0 | Wheat plant response rating [7, 18]: 0 | Crabgrass, Large plant response rating [8, 12]: 35 | Crabgrass, Large plant response rating [8, 13]: 100 | Crabgrass, Large plant response rating [8, 14]: 100 | Plant response rating, Crabgrass, Large [8, 15]: 100 | Plant response rating (0 to 100), Blackgrass [9, 19]: 0 | Plant response rating, Blackgrass [9, 20]: 5 | Plant response rating, Blackgrass ([9]; Postemergence, 31 g ai/ha, scale 0 to 100 (0 no effect, 100 complete control), 13 to 15 days): 5 | Plant response rating, Blackgrass [9, 21]: 5 | Plant response rating (0 to 100), Johnsongrass [10, 19]: 0 | Plant response rating, Johnsongrass [10, 21]: 0 | Plant response rating (0 to 100), Oat, Wild [11, 19]: 0 | Plant response rating, Oat, Wild [11, 20]: 5 | Plant response rating, Oat, Wild [11, 21]: 5

FC(F)(F)COc1cnn(-c2ccccc2Oc2ncc(Cl)cn2)c1 [Compound 138, 5-chloro-2-[2-[4-(2,2,2-trifluoroethoxy)-1H-pyrazol-1-yl]phenoxy]pyrimidine]
pest or weed control at 125 g/ha ([1]; Echinochloa crus-galli, pre-emergence, 240 h, 125 g ai/ha, read-out: Plant response rating, Barnyardgrass): 80% | pest or weed control at 500 g/ha ([1]; Echinochloa crus-galli, pre-emergence, 240 h, 500 g ai/ha, read-out: Barnyardgrass plant response rating): 100% | plant injury at 125 g/ha ([2]; Triticum aestivum, post-emergence, 240 h, 125 g ai/ha, read-out: Wheat plant response rating): 50% | plant injury at 500 g/ha ([2]; Triticum aestivum, post-emergence, 240 h, 500 g ai/ha, read-out: Plant response rating, Wheat): 90% | pest or weed control at 250 g/ha ([3]; Heteranthera limosa, read-out: Plant response rating, Ducksalad): 90% | pest or weed control at 250 g/ha ([4]; Echinochloa crus-galli, read-out: Plant response rating, Barnyardgrass): 0% | pest or weed control at 16 g/ha ([5]; Alopecurus myosuroides, pre-emergence, 16 g ai/ha, preemergence, scale 0 to 100 (0 no effect, 100 complete control), read-out: Blackgrass plant response rating): 5% | pest or weed control at 62 g/ha ([5]; Alopecurus myosuroides, pre-emergence, 62 g ai/ha, preemergence, scale 0 (no effect) to 100 (complete control), read-out: Blackgrass plant response rating): 80% | pest or weed control at 125 g/ha ([5]; Alopecurus myosuroides, pre-emergence, 125 g ai/ha, preemergence, scale 0 (no effect) to 100 (complete control), read-out: Blackgrass plant response rating): 90% | pest or weed control at 31 g/ha ([5]; Alopecurus myosuroides, pre-emergence, Preemergence, 31 g ai/ha, scale 0 to 100, 0 no effect, 100 complete control, read-out: Plant response rating, Blackgrass): 20% | pest or weed control at 16 g/ha ([6]; Lolium multiflorum, pre-emergence, 16 g ai/ha, scale 0 to 100 (0 no effect, 100 complete control), read-out: Ryegrass, Italian plant response rating): 0% | pest or weed control at 62 g/ha ([6]; Lolium multiflorum, pre-emergence, 62 g ai/ha, scale 0 (no effect) to 100 (complete control), read-out: Ryegrass, Italian plant response rating): 20% | pest or weed control at 125 g/ha ([6]; Lolium multiflorum, pre-emergence, 125 g ai/ha, scale 0 (no effect) to 100 (complete control), read-out: Ryegrass, Italian plant response rating): 60% | plant injury at 16 g/ha ([7]; Triticum aestivum, pre-emergence, 16 g ai/ha, scale 0 to 100 (0 no effect, 100 complete control), read-out: Wheat plant response rating): 0% | plant injury at 62 g/ha ([7]; Triticum aestivum, pre-emergence, 62 g ai/ha, scale 0 (no effect) to 100 (complete control), read-out: Wheat plant response rating): 5% | plant injury at 125 g/ha ([7]; Triticum aestivum, pre-emergence, 125 g ai/ha, scale 0 (no effect) to 100 (complete control), read-out: Wheat plant response rating): 5% | pest or weed control at 16 g/ha ([8]; Digitaria sanguinalis, pre-emergence, 16 g ai/ha, preemergence, scale 0 to 100 (0 no effect, 100 complete control), read-out: Crabgrass, Large plant response rating): 100% | pest or weed control at 62 g/ha ([8]; Digitaria sanguinalis, pre-emergence, 62 g ai/ha, preemergence, scale 0 (no effect) to 100 (complete control), read-out: Crabgrass, Large plant response rating): 100% | pest or weed control at 125 g/ha ([8]; Digitaria sanguinalis, pre-emergence, 125 g ai/ha, preemergence, scale 0 (no effect) to 100 (complete control), read-out: Crabgrass, Large plant response rating): 100% | pest or weed control at 31 g/ha ([8]; Digitaria sanguinalis, pre-emergence, Preemergence, 31 g ai/ha, scale 0 to 100, 0 no effect, 100 complete control, read-out: Plant response rating, Crabgrass, Large): 90% | pest or weed control at 16 g/ha ([9]; Alopecurus myosuroides, post-emergence, 16 g ai/ha, postemergence, 0 is no effect, 100 is complete control, read-out: Plant response rating (0 to 100), Blackgrass): 0% | pest or weed control at 125 g/ha ([9]; Alopecurus myosuroides, post-emergence, 125 g ai/ha, postemergence, visual rating, scale 0 to 100 (0 no effect, 100 complete control), read-out: Plant response rating, Blackgrass): 10% | pest or weed control at 31 g/ha ([9]; Alopecurus myosuroides, post-emergence, Postemergence, 31 g ai/ha, scale 0 to 100 (0 no effect, 100 complete control), 13 to 15 days, read-out: Plant response rating, Blackgrass): 5% | pest or weed control at 62 g/ha ([9]; Alopecurus myosuroides, post-emergence, Postemergence, 62 g ai/ha, scale 0 to 100 (0 no effect, 100 complete control), read-out: Plant response rating, Blackgrass): 5% | pest or weed control at 16 g/ha ([10]; Sorghum halepense, post-emergence, 16 g ai/ha, postemergence, 0 is no effect, 100 is complete control, read-out: Plant response rating (0 to 100), Johnsongrass): 5% | pest or weed control at 125 g/ha ([10]; Sorghum halepense, post-emergence, 125 g ai/ha, postemergence, visual rating, scale 0 to 100 (0 no effect, 100 complete control), read-out: Plant response rating, Johnsongrass): 10% | pest or weed control at 62 g/ha ([10]; Sorghum halepense, post-emergence, Postemergence, 62 g ai/ha, scale 0 to 100 (0 no effect, 100 complete control), read-out: Plant response rating, Johnsongrass): 5% | pest or weed control at 16 g/ha ([11]; Avena fatua, post-emergence, 16 g ai/ha, postemergence, 0 is no effect, 100 is complete control, read-out: Plant response rating (0 to 100), Oat, Wild): 5% | pest or weed control at 125 g/ha ([11]; Avena fatua, post-emergence, 125 g ai/ha, postemergence, visual rating, scale 0 to 100 (0 no effect, 100 complete control), read-out: Plant response rating, Oat, Wild): 10% | pest or weed control at 62 g/ha ([11]; Avena fatua, post-emergence, Postemergence, 62 g ai/ha, scale 0 to 100 (0 no effect, 100 complete control), read-out: Plant response rating, Oat, Wild): 5%
